Reference: US20240091202A1, “COMPOSITIONS FOR THE TREATMENT OF EBV ASSOCIATED DISEASES OR CONDITIONS” (Universität Basel, priority 2021, published 2024)

Legend:
[1] = system: primary B cells infected with EBV B95-8; assay: EBV-driven B cell transformation efficiency assay (LCL outgrowth); type: cell-based, human; settings: for restoration of EBV's capacity to latently infect/transform B cells in the presence of BMS-986205: 10 μM BMS-986205 plus 50 μM L-KYNU or 500 μM NaMN, added day 0; for rescue of the capacity of EBV to transform IDO1-blocked B cells: summary statement, added together with IDO1 inhibitor
Experimental: Transformation efficiency was analyzed 5 weeks post infection and plotted against the added multiplicity of infection (MOI).
Data are represented as median value of indicated individual data points (n=4 independent experiments) relative to Ctrl siRNA (set at one), and compared using two-tailed Student's t-test.
An IDO1 inhibitor as disclosed herein can inhibit B cell transformation. Preferably, an IDO1 inhibitor as disclosed herein can inhibit EBV-induced B cell transformation. Transformation can be analysed by methods known in the art, for example using a transformation efficiency assay. In this assay B cells are seeded into a cell culture plate and infected with increasing virus concentrations. An IDO1 inhibitor can be added immediately after infection. After an incubation period of 5 weeks, the number of wells positive for LCL outgrowth are counted. Alternatively, any other suitable assay can be used. Suitably, an IDO1 inhibitor as disclosed herein can inhibit B cell transformation at a concentration of about 200 μM or less, about 150 μM or less, about 100 μM or less, about 50 μM or less, about 20 μM or less, about 15 μM or less, about 10 μM or less, about 5 μM or less, or about 1 μM or less, preferably about 100 μM or less or about 10 μM or less in the assays described herein. An IDO1 inhibitor as disclosed herein can be any one of the IDO inhibitors as disclosed herein that can inhibit B cell transformation, preferably EBV-induced B cell transformation.
Bulk B cells were seeded at a final concentration of 1×10^6 cells/ml in LCM-10 medium in a 96-well round bottom plate and infected with increasing concentration of EBV B95-8 (MOI 1×10^3-1×10^−4) by spinoculation. […] 5 weeks post-infection the number of wells with morphologic changes of transformation was counted and plotted as percentage of wells positive for LCL outgrowth against virus concentration in MOI.

[2] = system: primary B cells infected with EBV B95-8; assay: EBV-driven B cell proliferation, CellTrace Violet flow cytometry assay; type: cell-based, human; settings: different BMS-986205 concentrations added at 0 hpi; analyzed 8 days post infection; vs vehicle
Experimental: Proliferation was analyzed in the presence of vehicle or different BMS-986205 concentrations added on day 0 post EBV-infection of primary B cells (n=2). Uninfected and h.i. EBV infected cells served as internal controls. Proliferation was analyzed 8 days post infection by flow cytometry using a cell trace violet based assay.
Bulk B cells were stained with CellTraceTM Violet (Cell Proliferation Kit, ThermoFisher) then infected with EBV B95-8 as described above. Proliferation was assessed by determining the number of proliferated cells (cells that had proliferated at least once after infection) with IDO1 inhibitor/number of proliferated cells with vehicle control.

IDO1 = IDO1 inhibition in humanized mouse model of EBV infection: tryptophan and L-kynurenine levels; type: in vivo, humanized NSG mice; settings: Epacadostat 200 mg/kg i.p.; d -7, day 2 and day 7 pi; vs vehicle (FIG. 10)
Experimental: Data are shown as box and whiskers (median, IQR and range) and compared by two-tailed Student's t-test.
(§1) A humanized mouse model of EBV infection was then used to directly interrogate the role of IDO1 in EBV-driven immune dysregulation and lymphomagenesis. Briefly, NSG mice (Jackson Laboratory, Bar Harbor, ME, USA) were injected with human hematopoietic progenitor cells shortly after birth, and reconstitution with human immune system components was confirmed at 3-4 months of age (data not shown). […]. Efficacy of Epacadostat-mediated IDO1 inhibition was verified by quantifying tryptophan and L-kynurenine plasma levels (FIG. 10). EBV viral loads were assessed in DNA preparations from whole blood at week 2, 3, 4, and 5 pi, and in the spleen at the day of sacrifice, using Taqman real-time PCR with modified primers (5′-[…]-3′ and 5′-[…]-3′) and a fluorogenic probe (5′-FAM […]-TAMRA-3′) to detect the conserved EBV BamHI-W fragment. Samples were analyzed in triplicates and run on a CFX384 Touch Real-time PCR Detection System (Bio-Rad). DNA from whole blood was extracted with the NucliSENS EasyMAG System (Biornerieux) and DNA from splenic tissues was isolated using the DNeasy Blood and Tissue kit (QIAGEN), according to the manufacturer's recommendations.

EBV-positive tumors = assay: EBV-positive tumor burden, humanized mouse model of EBV infection; type: in vivo, humanized NSG mice; settings: Epacadostat i.p. vs vehicle, n=10 each (FIG. 13A-13C); text concludes reduced lymphomagenesis
Experimental: […]. A Chi-Square test was used to compare groups.
(lower panels) are shown, stained with hematoxylin and eosin (HE) (left panels) and EBER FISH (right panels).
A Chi-Square test was used to compare groups. […].
as §1

CD8+ T cells = assay: CD8+ T cell expansion, humanized mouse model of EBV infection; type: in vivo, humanized NSG mice; settings: Epacadostat i.p.
Experimental: (§2) Median values from the indicated individual measurements are shown, compared using two-tailed Student's t-test.
Data are shown as medians and two-tailed Student's t-test was used to compare groups.
as §1

EBV = EBV viral loads in blood and spleen, humanized mouse model (Taqman real-time PCR); type: in vivo, humanized NSG mice
Experimental: […]. Data are shown as median values from the indicated individual measurements, compared using two-tailed Student's t-test.
as §2, §1

[3] = 5 weeks post infection (FIG. 6A)

Q: For `C[C@@H](C(=O)Nc1ccc(Cl)cc1)C1CCC(c2ccnc3ccc(F)cc23)CC1` (stereo partly shown) [BMS-986205], which “EBV driven B cell transformation” value ([1]; 10 μM BMS-986205 added at 0 hpi, analyzed 5 weeks post infection, vs vehicle) is on record?
A: efficiently suppressed

Q: And the “EBV driven B cell proliferation” value [2]?
A: inhibited in a dose-dependent manner

Q: With `NS(=O)(=O)NCCNc1nonc1C(=NO)Nc1ccc(F)c(Br)c1` [Epacadostat] as the compound, how does the “transformation of EBV-infected B cells” value ([1]; 100 μM Epacadostat added at 0 hpi, 5 weeks post infection (FIG. 6B)) read?
A: efficiently suppressed

Q: And the “efficacy of IDO1 inhibition by tryptophan and L-kynurenine plasma levels” value (IDO1)?
A: verified

Q: What about the “effect on EBV-driven B cell tumorigenesis (macroscopic and microscopic tumor burden)” value (EBV-positive tumors) of the same compound?
A: equally clear

Q: What about the “Splenic CD8VCD4^+ T cell ratios” value (CD8+ T cells; day of sacrifice (FIG. 12C)) of the same compound?
A: remained unchanged

Q: And the “expansion of peripheral blood CD8+ T cells” value (CD8+ T cells; week 0 to week 5 pi, vs vehicle (FIG. 12A and 12B))?
A: prevented

Q: What about the splenic viral loads (EBV; Epacadostat i.p., 5 weeks pi, vs vehicle-treated (FIG. 11B)) of the same compound?
A: borderline reduced

Q: What about the “blood EBV load” value (EBV; Epacadostat i.p., AUC of viral load 2-5 weeks pi, vs vehicle-treated (FIG. 11A)) of the same compound?
A: efficiently reduced

Q: What about the “effect on viral loads” value (EBV; treated throughout the experiment and also treated for only 2 weeks after infection (data not shown)) of the same compound?
A: observed

Q: For `Nc1ccccc1C(=O)C[C@H](N)C(=O)O` [L-KYNU, L-Kynurenine], which “restoration of EBV's capacity to latently infect/transform B cells in the presence of BMS-986205” value [1, 3] is on record?
A: partially restored

Q: What about the “rescue of the capacity of EBV to transform IDO1-blocked B cells” value [1] of the same compound?
A: partially and dose-dependently rescued

Q: `O=C(O)c1ccc[n+]([C@@H]2O[C@H](COP(=O)(O)O)[C@@H](O)[C@H]2O)c1` [NaMN] was tested. Which “restoration of EBV's capacity to latently infect/transform B cells in the presence of BMS-986205” value [1, 3] did it give?
A: fully restored

Q: And the “transformation efficiency compared to vehicle” value ([1]; 10 μM BMS-986205 plus 500 μM NaMN, day 0, 5 weeks post infection (FIG. 6A))?
A: slightly increased

Q: What about the “rescue of transformation of B cells in the presence of Epacadostat” value ([1]; 100 μM Epacadostat plus 500 μM NaMN, day 0, 5 weeks post infection (FIG. 6B)) of the same compound?
A: fully rescued

Q: What about the “rescue of the capacity of EBV to transform IDO1-blocked B cells” value [1] of the same compound?
A: fully rescue
